This passage reports TGI and GI50 results from PubChem BioAssay (NCI).

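Growth conditions: 96-well plates. Treatment: test compound, 48 hours, 5 concentrations. Analysis: linear interpolation between bracketing concentrations; unreached endpoints set to highest concentration. GI50 is the concentration that inhibits growth by half. TGI: total growth inhibition.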 Some results are limits rather than exact numbers.

Common to all, as to test: NCI tumour cell line growth inhibition, 48 h
Experiment [1] concerns PC-3 prostate.
Experiment [2] deals with OVCAR-4 ovarian.
Experiment [3] relates to HT29 colon.
In experiment [4] the test system is SF-295 CNS.
Experiment [5] has as its system SNB-75 CNS.
For experiment [6], the system named is SNB-19 CNS.
The subject of experiment [7] is OVCAR-8 ovarian.
The test system of experiment [8] is M14 melanoma.
In experiment [9] the test system is TK-10 renal.
For experiment [10], the system named is NCI-H23 lung.
Experiment [11] has as its system NCI-H460 lung.
Experiment [12] deals with SN12C renal.
The subject of experiment [13] is IGROV1 ovarian.
The subject of experiment [14] is RPMI-8226 leukemia.

Regarding `Clc1ccc2c(c1)CC1C[N+]3=C(CCCC3)C1=C2` (centres undefined), the TGI in experiment [1], in experiment [2], in experiment [3], in [4], in experiment [5] and in [6] was above 100 µM throughout. Also, the TGI in experiment [7], in [8], in experiment [9], in experiment [10], in experiment [11] and in experiment [12] was above 100 µM each time. This compound also gave a TGI in [13] above 100 µM.
For `CC1(C)O[C@H]2[C@@H]3N=C(c4ccccc4)O[C@@H]3C=C[C@H]2O1`, the TGI in experiment [1], in [2], in experiment [3], in experiment [4], in [6] and in experiment [7] was above 100 µM throughout. Besides, the TGI in [14], in [8], in experiment [9], in [10], in experiment [12] and in experiment [13] was above 100 µM each time.
Turning to `COc1cc(/C=C/c2sc3ccccc3[n+]2C)ccc1N(C)C`, the GI50 in experiment [1] is 12.8 µM; in experiment [14], 3.15 µM; in experiment [11], 13.4 µM; in experiment [13], 9.14 µM. The TGI was 32.3 µM in [1]; 40.1 µM in experiment [2]; 32.4 µM in experiment [3]; above 100 µM in experiment [4]; 26.8 µM in experiment [6]; 16.2 µM in experiment [14]. Moreover, the TGI in experiment [8] turned out to be 27.1 µM; in experiment [9] it was 32 µM; in experiment [10], 27.7 µM; in experiment [11], 38 µM; in experiment [12], 25.5 µM; in experiment [13], 22 µM.
As for `Cn1c(=O)c2nc3nnc(C#N)c(N)n3c2n(C)c1=O`, the TGI in experiment [1], in experiment [2], in experiment [3], in experiment [4], in experiment [7] and in experiment [14] was above 100 µM in each case. The TGI in [8], in experiment [9], in experiment [11], in experiment [12] and in experiment [13] was above 100 µM each time.
Regarding `COc1ccc(C(=O)/C=C/c2ccc(OCC(=O)O)cc2)cc1`, the TGI in [1], in [3], in experiment [4], in experiment [5], in experiment [6] and in [7] was above 100 µM each time. For the same compound, the TGI in [14], in [8], in [9], in experiment [10], in experiment [12] and in [13] was above 100 µM throughout.
As for `CC(=O)O[C@H]1[C@@H](OC2CCCC2(c2ccccc2)c2ccccc2)O[N+]([O-])=C[C@@]12COCc1cc3c(cc12)OCO3` (some centres undefined), the TGI in [1] is 19.3 µM; in experiment [2], 15.1 µM; in [3] it was 9.11 µM; in experiment [4], above 25.9 µM; in experiment [5], 34.6 µM; in [6], 49 µM. For the same compound, the TGI in [7] is above 100 µM; in [8], 37.2 µM; in [9] it was above 24.7 µM; in experiment [10], 52.1 µM; in [11] it was 31.5 µM; in experiment [12], above 39.6 µM. The compound also showed a TGI in [13] of 22.2 µM.
As to `CC1(C)CCCCCC(C)(CCCCCCCCCCCO)C1=O` (centres undefined), the TGI in [1] is 30 µM; in experiment [2], 28.8 µM; in [3], 24.1 µM; in experiment [4], 29.6 µM; in [5], 29.9 µM; in [6], 31.2 µM. Besides, the TGI in experiment [7] was found to be 31.2 µM; in [14], 47.2 µM; in experiment [9], 24.5 µM; in experiment [10], 30.3 µM; in experiment [11], 31.9 µM; in experiment [12] it was 29.9 µM. The compound further displayed a TGI in experiment [13] of 32.6 µM.
On to `O=c1c2ccccc2c2c1c1c3ccccc3c(=O)c1c1c3ccccc3c(=O)c21`, for which the TGI in experiment [1], in [3], in experiment [4], in experiment [5], in [6] and in experiment [7] was above 100 µM in each case. Moreover, the TGI in experiment [14], in experiment [8], in experiment [9], in experiment [10], in experiment [11] and in experiment [12] was above 100 µM throughout. The TGI in experiment [13] is above 100 µM.
In the case of `c1ccc(/N=N\Nc2ccc(-c3nc4ccccc4o3)cc2)nc1`, the TGI in experiment [1] was above 100 µM; in experiment [2] it was above 100 µM; in experiment [3] it was above 100 µM; in [5], 85.8 µM; in [6], above 100 µM; in experiment [7] it was above 100 µM. For the same compound, the TGI in [8], in experiment [9], in [10], in experiment [11], in experiment [12] and in [13] was above 100 µM throughout.
With `COc1cc(CNC(=O)[C@H](Cc2ccc(O)cn2)NC(C)=O)cc(OC)c1`, the TGI in experiment [1], in experiment [2], in experiment [3], in [4], in experiment [6] and in [14] was above 100 µM throughout. In addition, the TGI in experiment [8], in experiment [9], in experiment [10], in experiment [11], in experiment [12] and in experiment [13] was above 100 µM throughout.
For the compound `O=Cc1[nH]c(=O)[nH]c(=O)c1CCl`, the TGI in experiment [1] was above 100 µM; in experiment [2], above 100 µM; in [3], above 100 µM; in experiment [4], above 100 µM; in [5] it was 75.6 µM; in [6], above 100 µM. In addition, the TGI in experiment [7] is above 100 µM; in [14] it was above 72.1 µM; in experiment [9], above 100 µM; in experiment [10], above 100 µM; in [11], 99.5 µM; in experiment [12], above 100 µM. In addition, the TGI in experiment [13] was above 100 µM.
Take `CCOC(=O)NC(NNc1ccc([N+](=O)[O-])cc1[N+](=O)[O-])(C(F)(F)F)C(F)(F)F`: the TGI in experiment [1], in experiment [3], in [4], in [5], in experiment [6] and in experiment [7] was above 100 µM in each case. For the same compound, the TGI in experiment [14] was 47.4 µM; in experiment [8], above 100 µM; in experiment [9], 96 µM; in experiment [10], above 100 µM; in [11], above 100 µM; in experiment [12] it was above 100 µM. In experiment [13], this compound yielded a TGI above 100 µM.
Consider `CCn1c(-c2ccccc2)nc2c1C(=O)c1ccccc1C2=O`, for which the TGI in experiment [1] was 64.3 µM; in experiment [2], 30 µM; in [3] it was 30.3 µM; in [4] it was 62.9 µM; in experiment [6], above 100 µM; in [7] it was 35 µM. Also, the TGI in experiment [14] is above 100 µM; in [8] it was 54 µM; in experiment [9] it was 85.9 µM; in experiment [10], above 100 µM; in [11], 46.5 µM; in [12], above 100 µM. In experiment [13], this compound yielded a TGI of 79.8 µM.
As for `COc1ccc(N=Nc2c(C)c(C#N)c(=S)n(C3OC(COC(C)=O)C(OC(C)=O)C(OC(C)=O)C3OC(C)=O)c2-c2ccccc2)cc1` (centres undefined), the TGI was 21.3 µM in experiment [1]; 12.1 µM in [2]; above 100 µM in [3]; 82.1 µM in experiment [4]; 24.2 µM in experiment [6]; above 100 µM in experiment [14]. In addition, the TGI is 10.7 µM in experiment [8]; 34.2 µM in experiment [9]; 34.6 µM in experiment [10]; above 100 µM in experiment [11]; 29.9 µM in [12].
Take `CN(C)CS/C(N)=N\C(O)C(Cl)(Cl)Cl` (centres undefined): the TGI in experiment [1], in [2], in experiment [3], in experiment [4], in experiment [5] and in [6] was above 100 µM each time. Also, the TGI in experiment [7], in [8], in experiment [9], in experiment [10], in experiment [11] and in experiment [12] was above 100 µM each time. The compound further returned a TGI in experiment [13] above 100 µM.
With `O=c1oc2cc(O)ccc2cc1-c1nc2ccccc2s1`, the TGI is 52.5 µM in experiment [1]; above 100 µM in experiment [2]; 85.6 µM in [3]; 89.3 µM in experiment [4]; above 100 µM in [6]; above 100 µM in experiment [7]. The TGI is above 100 µM in [14]; 82.9 µM in experiment [8]; above 100 µM in experiment [9]; 61.2 µM in [10]; 62.2 µM in experiment [11]; 49 µM in [12]. Besides, the TGI in experiment [13] was above 100 µM.
Consider `O=C1/C(=C/c2ccc(Cl)cc2)N=C(c2ccccc2)N1C1Nc2cc3c(cc2S1)NC(N1C(=O)/C(=C/c2ccc(Cl)cc2)N=C1c1ccccc1)S3` (centres undefined), for which the TGI in experiment [1], in experiment [2], in [3], in [4], in [7] and in experiment [14] was above 100 µM throughout. In addition, the TGI in experiment [8], in experiment [9], in [10], in [11] and in [13] was above 100 µM each time.
Regarding `COc1ccc(-c2oc3cc(OC)c(OC)c(OC)c3c(=O)c2OC)cc1OC`, the TGI in experiment [1], in experiment [2], in experiment [3], in [4], in experiment [5] and in experiment [6] was above 100 µM throughout. For the same compound, the TGI in experiment [7], in [8], in [9], in experiment [10], in experiment [11] and in [12] was above 100 µM each time. This compound displayed a TGI in [13] above 100 µM.
`O=C1C=CC[C@H](/C=C/C[C@@H](O)C[C@H](O)/C=C/c2ccccc2)O1`: the TGI in experiment [1] amounted to 27.8 µM; in [2], 28.4 µM; in experiment [3] it was 23.5 µM; in [4], 29.8 µM; in experiment [5], 26.4 µM; in [6] it was 34.1 µM. In addition, the TGI came to 32.9 µM in experiment [7]; 27.4 µM in [8]; 24 µM in [9]; 23.5 µM in experiment [10]; 35.3 µM in experiment [11]; 26.9 µM in experiment [12]. The compound further yielded a TGI in experiment [13] of 28 µM.
Take `COc1cc(S(=O)(=O)Nc2ccc(-c3csc(N4C(=O)C(C)SC4c4ccccc4O)n3)cc2)ccc1Cl` (centres undefined): the TGI in experiment [1] was above 100 µM; in experiment [3] it was above 100 µM; in experiment [4], above 100 µM; in [5] it was 95.7 µM; in experiment [6], above 100 µM; in [7], above 100 µM. The TGI in [14], in experiment [8], in experiment [10], in [12] and in experiment [13] was above 100 µM throughout.
`O/N=C1/CCCCCC1NO` (centres undefined): the TGI in experiment [1], in [2], in [3], in [4], in experiment [6] and in experiment [7] was above 100 µM in each case. The TGI in experiment [14], in experiment [8], in experiment [9], in experiment [10], in experiment [11] and in experiment [12] was above 100 µM throughout. In experiment [13], the TGI is above 100 µM.
